The record followed here is patent US20240239792A1, “MODULATORS OF BCL-2 OR BCL-2/BCL-XL AND USES THEREOF” (APPICINE THERAPEUTICS (HK) LIMITED, priority 2021, published 2024).

One assay addresses T1, BCL-2 (Homo sapiens, UniProt P10415).
T1 construct: purchased Cisbio 63ADK000CB01PEG
As to the kind of experiment: HTRF BCL-2/BAK assay (Cisbio). The note with it: recombinant human Tag1-BCL-2 2 nM, Tag2-BAK 10 nM. The format is binding. The method, then: (§1) Then the pre-mixed anti-Tag1-Eu^3+ and anti-tag2-XL665 were added to the plate and further incubated at room temperature for another 2 hours. The signals ([…]) were read on Envision 2104 instrument. The IC50 for each compound was derived from fitting the signal of 665/615 nM to the increasing compound concentration.
(§2) Using the above assays, the following compounds were tested.

A further assay has as its target T2, BCL-XL (Homo sapiens, UniProt Q07817).
T2 construct: purchased Cisbio 63ADK000CB04PEG
Put plainly: HTRF BCL-XL/BAK assay (Cisbio). The note with it: recombinant human Tag1-BCL-XL 2 nM, Tag2-BAK 5 nM. The assay is classed as binding. The protocol:
as §1, §2

For another assay, the system named is DOHH2 cells. Put plainly: CellTiter-Glo cell proliferation assay, DOHH2 cells. The assay is classed as cell-based. Conditions: Homo sapiens, DOHH-2, 72 hours. Summed up: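 GI50 derived from CellTiter-Glo luminescent viability signal. Cells grown in DMEM with 10% FBS received a compound dilution series for 72 h (37 °C, 5% CO2).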

Bounds are passed on as bounds.

T2 sequence (Q07817 whole entry): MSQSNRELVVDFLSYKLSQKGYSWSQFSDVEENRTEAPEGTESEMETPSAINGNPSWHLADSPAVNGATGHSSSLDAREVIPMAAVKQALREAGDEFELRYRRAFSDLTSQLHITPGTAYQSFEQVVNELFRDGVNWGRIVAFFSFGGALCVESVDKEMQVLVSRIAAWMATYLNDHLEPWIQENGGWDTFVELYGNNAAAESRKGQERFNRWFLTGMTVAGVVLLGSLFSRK
T1 sequence (P10415 whole entry): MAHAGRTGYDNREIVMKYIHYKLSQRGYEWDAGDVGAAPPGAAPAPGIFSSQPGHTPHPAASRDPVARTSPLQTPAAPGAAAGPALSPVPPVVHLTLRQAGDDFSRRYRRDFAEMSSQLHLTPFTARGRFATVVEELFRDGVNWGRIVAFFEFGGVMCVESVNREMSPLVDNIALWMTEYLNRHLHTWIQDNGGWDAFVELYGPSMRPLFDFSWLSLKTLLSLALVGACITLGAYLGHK

Regarding `CC1(C)COCCC1CNc1ccc(S(=O)(=O)NC(=O)c2ccc(N3CCN([C@@H]4CCCCc5c(Cl)cccc54)CC3)cc2Oc2cnc3[nH]ccc3c2)cc1[N+](=O)[O-]` (stereo partly drawn) [Compound 101, 2-((1H-pyrrolo[2,3-b]pyridin-5-yl)oxy)-4-(4-((R)-1-chloro-6,7,8,9-tetrahydro-5H-benzo[7]annulen-5-yl)piperazin-1-yl)-N-((4-(((3,3-dimethyltetrahydro-2H-pyran-4-yl)methyl)amino)-3-nitrophenyl)sulfonyl)benzamide], the IC50 at BCL-2 is less than 20 nM; on BCL-XL it was 20 to 200 nM. The molecule further displayed a GI50 with DOHH2 cells of less than 50 nM.
As to `CC(C)(C)OC(=O)NCCN1CCC2(CC1)CC(CNc1ccc(S(=O)(=O)NC(=O)c3ccc(N4CCN([C@@H]5CCCCc6c(Cl)cccc65)CC4)cc3Oc3cnc4[nH]ccc4c3)cc1[N+](=O)[O-])C2` [Compound 109, tert-butyl (R)-(2-(2-(((4-(N-(2-((1H-pyrrolo[2,3-b]pyridin-5-yl)oxy)-4-(4-(1-chloro-6,7,8,9-tetrahydro-5H-benzo[7]annulen-5-yl)piperazin-1-yl)benzoyl)sulfamoyl)-2-nitrophenyl)amino)methyl)-7-azaspiro[3.5]nonan-7-yl)ethyl)carbamate], the results for the IC50 at BCL-2 and on BCL-XL were less than 20 nM and 20 to 200 nM, respectively. Further, in the assay on DOHH2 cells, the GI50 was less than 50 nM.
On to `O=C(NS(=O)(=O)c1ccc(NCC2CCOCC2)c([N+](=O)[O-])c1)c1ccc(N2CCN(C3CCCCc4ccc([N+](=O)[O-])cc43)CC2)cc1Oc1cnc2[nH]ccc2c1` (stereo not drawn) [Compound 30, 2-((1H-pyrrolo[2,3-b]pyridin-5-yl)oxy)-N-((3-nitro-4-(((tetrahydro-2H-pyran-4-yl)methyl)amino)phenyl)sulfonyl)-4-(4-(3-nitro-6,7,8,9-tetrahydro-5H-benzo[7]annulen-5-yl)piperazin-1-yl)benzamide], for which the results for the IC50 at BCL-2 and on BCL-XL were less than 20 nM and 200 to 2000 nM, respectively. This molecule displayed a GI50 in the assay on DOHH2 cells of 500 to 5000 nM.
With `O=C(NS(=O)(=O)c1ccc(NCC2CCOCC2)c([N+](=O)[O-])c1)c1ccc(N2CCN(C3CCCCc4ccc(Br)cc43)CC2)cc1Oc1cnc2[nH]ccc2c1` (stereo not drawn) [Compound 21, 2-((1H-pyrrolo[2,3-b]pyridin-5-yl)oxy)-4-(4-(3-bromo-6,7,8,9-tetrahydro-5H-benzo[7]annulen-5-yl)piperazin-1-yl)-N-((3-nitro-4-(((tetrahydro-2H-pyran-4-yl)methyl)amino)phenyl)sulfonyl)benzamide], the values for the IC50 at BCL-2 and on BCL-XL were less than 20 nM and more than 2000 nM, respectively. The molecule further gave a GI50 in the assay with DOHH2 cells of 50 to 500 nM.
On the same counts, the results for `O=C(NS(=O)(=O)c1ccc(NCC2CCOCC2)c([N+](=O)[O-])c1)c1ccc(N2CCN(C3CCCCc4c3cccc4[N+](=O)[O-])CC2)cc1Oc1cnc2[nH]ccc2c1` (stereo not drawn) [Compound 33, 2-((1H-pyrrolo[2,3-b]pyridin-5-yl)oxy)-N-((3-nitro-4-(((tetrahydro-2H-pyran-4-yl)methyl)amino)phenyl)sulfonyl)-4-(4-(1-nitro-6,7,8,9-tetrahydro-5H-benzo[7]annulen-5-yl)piperazin-1-yl)benzamide] are less than 20 nM, 20 to 200 nM and less than 50 nM.
The matching figures for `CCN1CCC2(CC1)CC(CNc1ccc(S(=O)(=O)NC(=O)c3ccc(N4CCN([C@@H]5CCCCc6c(Cl)cccc65)CC4)cc3Oc3cnc4[nH]ccc4c3)cc1[N+](=O)[O-])C2` [Compound 131, (R)-2-((1H-pyrrolo[2,3-b]pyridin-5-yl)oxy)-4-(4-(1-chloro-6,7,8,9-tetrahydro-5H-benzo[7]annulen-5-yl)piperazin-1-yl)-N-((4-(((7-ethyl-7-azaspiro[3.5]nonan-2-yl)methyl)amino)-3-nitrophenyl)sulfonyl)benzamide]: less than 20 nM, less than 20 nM and less than 50 nM.
